From PubChem BioAssay (NCI)
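Each compound was tested at five concentrations against cells in 96-well plates for 48 hours. GI50 = concentration required for 50% inhibition of growth. TGI: concentration producing complete growth inhibition.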

Columns and labels:
Test in all cases: inhibition of tumour cell growth, NCI panel, 48 h
[1] = tested on: NCI-H23 lung
[2] = tested on: SK-MEL-2 melanoma
[3] = tested on: DU-145 prostate
[4] = tested on: OVCAR-8 ovarian
[5] = tested on: SF-295 CNS
[6] = tested on: MOLT-4 leukemia
[7] = tested on: SK-MEL-28 melanoma
[8] = tested on: HCT-116 colon
[9] = tested on: HOP-62 NSCLC
[10] = tested on: UACC-257 melanoma

## O=C(Nc1cccc(-n2ccc3c(NC(=O)c4ccccc4)ncnc32)c1)Nc1ccc(Cl)c(C(F)(F)F)c1
[1]
  GI50: 1970 nM
  TGI: 18.7 µM
[2]
  GI50: 1180 nM
  TGI: 3.64 µM
[3]
  GI50: 4520 nM
  TGI: 11.3 µM
[4]
  GI50: 1950 nM
  TGI: 6.67 µM
[5]
  GI50: 1430 nM
  TGI: 7.24 µM
[6]
  GI50: 1770 nM
  TGI: 12.7 µM
[7]
  GI50: 2750 nM
  TGI: 9.44 µM
[8]
  GI50: 1850 nM
  TGI: 6.66 µM
[9]
  GI50: 5.62 µM
  TGI: 11.8 µM
[10]
  GI50: 2670 nM
  TGI: 8.43 µM

## C[C@]12CC[C@H]3[C@@H](CC=C4C[C@@H](O)CC[C@@]43C)[C@@H]1C/C(=C\c1cccnc1)[C@@H]2O
[1]
  TGI: > 100 µM
[2]
  TGI: > 100 µM
[3]
  TGI: 67.4 µM
[4]
  TGI: 36.3 µM
[5]
  TGI: 17.2 µM
[7]
  TGI: > 100 µM
[8]
  TGI: > 100 µM
[9]
  TGI: 29.4 µM
[10]
  TGI: > 100 µM

## CN(CCN)[C@H](CSSC[C@@H](c1ccccc1O)N(C)CCN)c1ccccc1O
[1]
  TGI: 28.5 µM
[2]
  TGI: 38.9 µM
[3]
  TGI: 33.1 µM
[4]
  TGI: 47.6 µM
[5]
  TGI: 20.4 µM
[6]
  TGI: 23 µM
[7]
  TGI: 33.5 µM
[8]
  TGI: 20.4 µM
[9]
  TGI: 28.6 µM
[10]
  TGI: 32.8 µM

## COc1cc2c(c(OC)c1OC)C(=O)c1c(O)cc(C)c(OC)c1C2=O
[1]
  TGI: > 100 µM
[2]
  TGI: > 100 µM
[3]
  TGI: > 100 µM
[4]
  TGI: > 100 µM
[5]
  TGI: > 100 µM
[6]
  TGI: > 100 µM
[7]
  TGI: > 100 µM
[8]
  TGI: > 100 µM
[9]
  TGI: > 100 µM
[10]
  TGI: > 100 µM

## Clc1cc(N/N=C(\c2ccccc2)c2ccccn2)ncn1
[1]
  TGI: > 100 µM
[2]
  TGI: > 100 µM
[3]
  TGI: > 100 µM
[5]
  TGI: > 100 µM
[6]
  TGI: 3.48 µM
[7]
  TGI: > 100 µM
[8]
  TGI: > 100 µM
[9]
  TGI: 0.665 µM
[10]
  TGI: 4.65 µM

## CC(C)=CCC[C@@H](C)C1=C(O)C(N[C@H](C)c2ccccc2)=C(C)C(=O)C1=O
[1]
  TGI: 34.2 µM
[2]
  TGI: 29.3 µM
[3]
  TGI: 38.9 µM
[4]
  TGI: > 24.1 µM
[5]
  TGI: 16.9 µM
[6]
  TGI: > 30.1 µM
[7]
  TGI: > 46.7 µM
[8]
  TGI: 20.4 µM
[9]
  TGI: 20 µM
[10]
  TGI: 53.4 µM

## COC(=O)c1ccccc1CC1Cc2c(C)ccc(C)c2C1=O (centres undefined)
[1]
  TGI: 55.2 µM
[2]
  TGI: 38.4 µM
[3]
  TGI: > 100 µM
[4]
  TGI: > 100 µM
[5]
  TGI: > 100 µM
[6]
  TGI: 45.6 µM
[7]
  TGI: > 100 µM
[8]
  TGI: 56 µM
[9]
  TGI: > 100 µM
[10]
  TGI: 48.2 µM

## ClC1=NSSC1(Cl)Cl
[1]
  TGI: > 100 µM
[2]
  TGI: > 100 µM
[3]
  TGI: > 100 µM
[4]
  TGI: 87.2 µM
[5]
  TGI: > 100 µM
[6]
  TGI: 53.4 µM
[8]
  TGI: > 100 µM
[9]
  TGI: > 100 µM
[10]
  TGI: > 100 µM

## CC(=O)N[C@@H](Cc1ccc(O)cn1)C(=O)NCc1ccc(Cl)cc1
[1]
  TGI: > 100 µM
[2]
  TGI: > 100 µM
[3]
  TGI: > 100 µM
[4]
  TGI: > 100 µM
[5]
  TGI: > 100 µM
[6]
  TGI: > 100 µM
[7]
  TGI: > 100 µM
[8]
  TGI: > 100 µM
[9]
  TGI: > 100 µM
[10]
  TGI: > 100 µM

## CC1=NN(c2nc(N)nc(CO)n2)C(C)(C)C1
[1]
  TGI: > 100 µM
[2]
  TGI: > 100 µM
[3]
  TGI: > 100 µM
[4]
  TGI: > 100 µM
[5]
  TGI: > 100 µM
[6]
  TGI: > 100 µM
[7]
  TGI: > 100 µM
[8]
  TGI: > 100 µM
[9]
  TGI: > 100 µM
[10]
  TGI: > 100 µM

## CO[C@@]12C[C@H](CNC(=O)c3ccc[nH]3)O[C@@H]1NC(=O)N2
[1]
  TGI: > 100 µM
[2]
  TGI: > 100 µM
[3]
  TGI: > 100 µM
[4]
  TGI: > 100 µM
[5]
  TGI: > 100 µM
[6]
  TGI: > 100 µM
[7]
  TGI: > 100 µM
[8]
  TGI: > 100 µM
[9]
  TGI: > 100 µM
[10]
  TGI: > 100 µM

## CC(=O)Oc1ccc2cc(Oc3cc(Cl)c(Cl)cc3Cl)c(=O)oc2c1
[1]
  TGI: 88.5 µM
[3]
  TGI: > 100 µM
[4]
  TGI: 34.7 µM
[5]
  TGI: 45.7 µM
[6]
  TGI: 30.4 µM
[7]
  TGI: 59.6 µM
[8]
  TGI: 28.1 µM
[9]
  TGI: 36.2 µM
[10]
  TGI: 50.6 µM

## O=C(C[N+]12CN3CN(CN(C3)C1)C2)c1ccc(-c2ccccc2)cc1
[1]
  TGI: 53.5 µM
[2]
  TGI: 35.2 µM
[3]
  TGI: 40 µM
[4]
  TGI: > 100 µM
[5]
  TGI: 43.6 µM
[6]
  TGI: 42.9 µM
[7]
  TGI: 37 µM
[8]
  TGI: 35.7 µM
[9]
  TGI: 55.4 µM
[10]
  TGI: 29.8 µM

## CCCCCCCCCCCC1N=C(N)N=C(N)N1c1cccc(Br)c1 (centres undefined)
[1]
  GI50: 1180 nM
  TGI: 2.69 µM
[2]
  GI50: 1550 nM
  TGI: 2.99 µM
[3]
  GI50: 1160 nM
  TGI: 2.42 µM
[4]
  GI50: 1730 nM
  TGI: 3.31 µM
[5]
  GI50: 1160 nM
  TGI: 19.4 µM
[8]
  GI50: 216 nM
  TGI: 1.5 µM

## COC1OC2COC(=O)c3cc(O)c(O)c(O)c3-c3c(cc(O)c(O)c3O)C(=O)OC2C(O)C1O (centres undefined)
[1]
  TGI: > 100 µM
[2]
  TGI: > 100 µM
[3]
  TGI: > 100 µM
[4]
  TGI: > 100 µM
[5]
  TGI: 37.8 µM
[6]
  TGI: > 100 µM
[7]
  TGI: > 100 µM
[8]
  TGI: > 100 µM
[9]
  TGI: > 100 µM
[10]
  TGI: > 100 µM

## CC(=O)OCC1OC(OCCCOP(=O)(OCCC#N)OCC2OC(n3cnc4c(N)ncnc43)C(OC(=O)c3ccccc3)C2OC(=O)c2ccccc2)C(OC(C)=O)C(OC(C)=O)C1OC(C)=O (centres undefined)
[1]
  TGI: > 100 µM
[2]
  TGI: > 100 µM
[3]
  TGI: > 100 µM
[4]
  TGI: > 100 µM
[5]
  TGI: > 100 µM
[6]
  TGI: > 100 µM
[7]
  TGI: > 100 µM
[8]
  TGI: > 100 µM
[9]
  TGI: > 100 µM
[10]
  TGI: > 100 µM

## Brc1ccc2[nH]c3c(C4=NCCC4)nccc3c2c1
[1]
  TGI: > 79.7 µM
[2]
  TGI: > 53.3 µM
[4]
  TGI: > 100 µM
[5]
  TGI: > 36.7 µM
[6]
  TGI: > 30.4 µM
[7]
  TGI: > 100 µM
[8]
  TGI: > 23.2 µM
[9]
  TGI: > 42.2 µM
[10]
  TGI: > 49.7 µM

## CC1CC(=O)N(N(C)C)C2(C#N)C(=O)N=C(N)C12C#N (centres undefined)
[1]
  TGI: > 100 µM
[2]
  TGI: > 100 µM
[3]
  TGI: > 100 µM
[4]
  TGI: > 100 µM
[5]
  TGI: > 100 µM
[6]
  TGI: > 100 µM
[8]
  TGI: > 100 µM
[9]
  TGI: > 100 µM
[10]
  TGI: > 100 µM

## CC1OC(OC2C(O)CC(OC3C(O)CC(OC4CCC5(C)C(CCC6C5CCC5(C)C(C7=CC(=O)OC7)C(O)CC65O)C4)OC3C)OC2C)CC(O)C1O (centres undefined)
[1]
  TGI: 0.313 µM
[2]
  TGI: 1.55 µM
[3]
  TGI: 0.236 µM
[4]
  TGI: 0.813 µM
[5]
  TGI: 0.809 µM
[7]
  TGI: 5.86 µM
[8]
  TGI: 0.576 µM
[9]
  TGI: 2.66 µM
[10]
  TGI: 2.07 µM

## O=C(NNC(=O)c1ccco1)c1ccco1
[2]
  TGI: > 100 µM
[3]
  TGI: > 100 µM
[4]
  TGI: > 100 µM
[5]
  TGI: > 100 µM
[6]
  TGI: > 100 µM
[7]
  TGI: > 100 µM
[8]
  TGI: > 100 µM
[9]
  TGI: > 100 µM
[10]
  TGI: > 100 µM
